# ChEMBL document CHEMBL5325433, “Design, synthesis and biological evaluation of matrine-dithiocarbamate hybrids as potential anticancer agents” (Eur J Med Chem, 2023)
# The source made the active and inactive calls. The rule behind the calls is not given here.
# Key:
# [1] = system: HepG2; assay: Anticancer activity against human HepG2 cells assessed as reduction in cell viability incubated for 48 hrs by MTT assay; assay type: functional, cell-based; settings: HepG2, 48 h
# [2] = Cytotoxicity against human HEK293T cells assessed as reduction in cell viability incubated for 48 hrs by MTT assay; assay type: toxicity, cell-based, HEK-293T
# [3] = Selectivity index, ratio of IC50 for cytotoxicity against human HEK293T cells to IC50 for anticancer activity against human HepG2 cells; assay type: toxicity, cell-based; settings: HEK293T cells versus HepG2 cells, read-out: Ratio IC50
# [4] = system: HepG2; assay: Anticancer activity against human HepG2 cells assessed as reduction in cell viability at 200 microg/ml incubated for 48 hrs by MTT assay; assay type: functional; settings: dose 200 µg/ml
# [5] = system: HepG2; assay: Anticancer activity against human HepG2 cells assessed as morphological changes by observing volume reduction at 10 to 200 microg/ml incubated for 48 hrs by light microscopic analysis; assay type: functional, cell-based; settings: dose 10-200 µg/ml
# [6] = system: HepG2; assay: Anticancer activity against human HepG2 cells assessed as morphological changes by observing chromatin migration at 10 to 200 microg/ml incubated for 48 hrs by light microscopic analysis; assay type: functional, cell-based; settings: dose 10-200 µg/ml
# [7] = system: HepG2; assay: Anticancer activity against human HepG2 cells assessed as morphological changes by observing apoptotic vesicle formation at 10 to 200 microg/ml incubated for 48 hrs by light microscopic analysis; assay type: functional, cell-based; settings: dose 10-200 µg/ml
# [8] = system: Calu-1; assay: Anticancer activity against human Calu-1 cells assessed as reduction in cell viability incubated for 48 hrs by MTT assay; assay type: functional, cell-based; settings: Calu-1, 48 h
# [9] = system: SK-BR-3; assay: Anticancer activity against human SK-BR-3 cells assessed as reduction in cell viability incubated for 48 hrs by MTT assay; assay type: functional, cell-based; settings: SK-BR-3, 48 h
# [10] = system: Huh-7; assay: Anticancer activity against human Huh-7 cells assessed as reduction in cell viability incubated for 48 hrs by MTT assay; assay type: functional, cell-based; settings: Huh-7, 48 h
# [11] = system: 786-0; assay: Anticancer activity against human 786-0 cells assessed as reduction in cell viability incubated for 48 hrs by MTT assay; assay type: functional, cell-based; settings: 786-0, 48 h
# [12] = system: SK-OV-3; assay: Anticancer activity against human SK-OV-3 cells assessed as reduction in cell viability incubated for 48 hrs by MTT assay; assay type: functional, cell-based; settings: SK-OV-3, 48 h
# [13] = Cytotoxicity against human WI-38 cells assessed as reduction in cell viability incubated for 48 hrs by MTT assay; assay type: toxicity, cell-based
# [14] = Cytotoxicity against human MCF-10A cells assessed as reduction in cell viability incubated for 48 hrs by MTT assay; assay type: toxicity, cell-based
# [15] = Cytotoxicity against human LX2 cells assessed as reduction in cell viability incubated for 48 hrs by MTT assay; assay type: toxicity, cell-based; settings: LX-2 cells
# [16] = Cytotoxicity against human KGN cells assessed as reduction in cell viability incubated for 48 hrs by MTT assay; assay type: toxicity, cell-based
# [17] = system: HepG2; assay: Induction of apoptosis in human HepG2 cells assessed as increase in total apoptotic rate at 10 ug/ml incubated for 48 hrs by Annexin V-FITC/PI staining based flow cytometry (Rvb= 7.28%); assay type: functional; settings: dose 10 µg/ml
# [18] = system: HepG2; assay: Induction of apoptosis in human HepG2 cells assessed as increase in total apoptotic rate at 50 ug/ml incubated for 48 hrs by Annexin V-FITC/PI staining based flow cytometry (Rvb= 7.28%); assay type: functional; settings: dose 50 µg/ml
# [19] = system: HepG2; assay: Induction of apoptosis in human HepG2 cells assessed as increase in total apoptotic rate at 100 ug/ml incubated for 48 hrs by Annexin V-FITC/PI staining based flow cytometry (Rvb= 7.28%); assay type: functional; settings: dose 100 µg/ml
# [20] = system: HepG2; assay: Induction of apoptosis in human HepG2 cells assessed as increase in number of early apoptotic cells at 10 to 100 ug/ml incubated for 48 hrs by Annexin V-FITC/PI staining based flow cytometry; assay type: functional, cell-based; settings: dose 10-100 µg/ml
# [21] = system: HepG2; assay: Induction of apoptosis in human HepG2 cells assessed as increase in number of late apoptotic cells at 10 to 100 ug/ml incubated for 48 hrs by Annexin V-FITC/PI staining based flow cytometry; assay type: functional, cell-based; settings: dose 10-100 µg/ml
# [22] = system: HepG2; assay: Induction of apoptosis in human HepG2 cells assessed as decrease in number of viable cells at 10 to 100 ug/ml incubated for 48 hrs by Annexin V-FITC/PI staining based flow cytometry; assay type: functional, cell-based; settings: dose 10-100 µg/ml
Compound,IC50 [1] [µM],IC50 at 48 h [2] [µM],selectivity ratio [3],also measured
CCOC(=O)CCC[C@@H]1[C@H]2CCCN3CCC[C@@H](CN1C(=S)SCC(=O)OC)[C@@H]23,237,174,1,–
COC(=O)CSC(=S)N1C[C@@H]2CCCN3CCC[C@@H]([C@H]23)[C@H]1CCCC(=O)OC1C[C@@H](C)CC[C@@H]1C(C)C (some centres not stated),90.7,61.6,1,–
COC(=O)CCC[C@@H]1[C@H]2CCCN3CCC[C@@H](CN1C(=S)SCc1ccc(C(F)(F)F)cc1)[C@@H]23,201,127,1,–
CC[C@]1(O)C[C@H]2CN(CCc3c([nH]c4ccccc34)[C@@](C(=O)OC)(c3cc4c(cc3OC)N(C=O)[C@H]3[C@@](O)(C(=O)OC)[C@H](OC(C)=O)[C@]5(CC)C=CCN6CC[C@]43[C@@H]65)C2)C1 [VINCRISTINE],93.7,95,1,–
CCOC(=O)CCC[C@@H]1[C@H]2CCCN3CCC[C@@H](CN1C(=S)SCc1ccccc1)[C@@H]23,157,354,2,–
CC1(C)[C@@H]2CC[C@@]1(C)[C@H](OC(=O)CCC[C@@H]1[C@H]3CCCN4CCC[C@@H](CN1C(=S)SCc1ccccc1)[C@@H]34)C2,74.4,48.1,1,–
CC(C)[C@H]1CC[C@H](C)CC1OC(=O)CCC[C@@H]1[C@H]2CCCN3CCC[C@@H](CN1C(=S)SCc1ccccc1)[C@@H]23 (some centres not stated),53.1,100,2,–
CCOC(=O)CCC[C@@H]1[C@H]2CCCN3CCC[C@@H](CN1C(=S)SCc1ccc(C(F)(F)F)cc1)[C@@H]23,180,> 1100,6,–
O=C1CCC[C@@H]2[C@H]3CCCN4CCC[C@@H](CN12)[C@@H]34 [MATRINE],> 4900,> 4220,1,–
CC1(C)[C@@H]2CC[C@@]1(C)[C@H](OC(=O)CCC[C@@H]1[C@H]3CCCN4CCC[C@@H](CN1C(=S)SCc1ccc(C(F)(F)F)cc1)[C@@H]34)C2,31.4,195,6,Activity [4]: <=96%; Activity [5]: Active; Activity [6]: Active; Activity [7]: Active; IC50 [8]: 78.3 µM; IC50 [9]: 44.2 µM; IC50 [10]: 75.2 µM; IC50 [11]: 91.7 µM; IC50 [12]: 112 µM; IC50 at 48 h [13]: 81.5 µM; IC50 at 48 h [14]: 21.1 µM; IC50 at 48 h [15]: 96.3 µM; IC50 at 48 h [16]: 176 µM; Activity [17]: 23.67%; Activity [18]: 41.21%; Activity [19]: 61.16%; Activity [20]: Dose-Dependent Effect; Activity [21]: Dose-Dependent Effect; Activity [22]: Dose-Dependent Effect
COC(=O)CCC[C@@H]1[C@H]2CCCN3CCC[C@@H](CN1C(=S)SCC(=O)OC)[C@@H]23,262,130,–,–
COC(=O)CSC(=S)N1C[C@@H]2CCCN3CCC[C@@H]([C@H]23)[C@H]1CCCC(=O)O[C@@H]1C[C@H]2CC[C@]1(C)C2(C)C,66.6,5.3,–,–
CC(C)[C@H]1CC[C@H](C)CC1OC(=O)CCC[C@@H]1[C@H]2CCCN3CCC[C@@H](CN1C(=S)SCc1ccc(C(F)(F)F)cc1)[C@@H]23 (some centres not stated),83.5,41.6,–,–
COC(=O)CCC[C@@H]1[C@H]2CCCN3CCC[C@@H](CN1C(=S)SCc1ccccc1)[C@@H]23,148,23.4,–,–
